# According to patent US6380238B1, “Indoline derivatives as 5-HT2B and or 5-HTC receptor ligands” (Vernalis Research Limited, priority 1998, dated 2002):
# Counter-ions that a name gives are not always drawn. Like-named read-outs stand apart in the source and are kept apart here.
# How the values were obtained:
# human 5-HT2B receptors = biological target: T1, human 5-HT2B receptors (Homo sapiens, UniProt P41595); assay: Binding to 5-HT2B receptor, [3H]-5-HT radioligand, CHO cell line
# T1 construct: expressed in transfected cells; host or cells: CHO cell line
# T1 sequence (P41595 whole entry): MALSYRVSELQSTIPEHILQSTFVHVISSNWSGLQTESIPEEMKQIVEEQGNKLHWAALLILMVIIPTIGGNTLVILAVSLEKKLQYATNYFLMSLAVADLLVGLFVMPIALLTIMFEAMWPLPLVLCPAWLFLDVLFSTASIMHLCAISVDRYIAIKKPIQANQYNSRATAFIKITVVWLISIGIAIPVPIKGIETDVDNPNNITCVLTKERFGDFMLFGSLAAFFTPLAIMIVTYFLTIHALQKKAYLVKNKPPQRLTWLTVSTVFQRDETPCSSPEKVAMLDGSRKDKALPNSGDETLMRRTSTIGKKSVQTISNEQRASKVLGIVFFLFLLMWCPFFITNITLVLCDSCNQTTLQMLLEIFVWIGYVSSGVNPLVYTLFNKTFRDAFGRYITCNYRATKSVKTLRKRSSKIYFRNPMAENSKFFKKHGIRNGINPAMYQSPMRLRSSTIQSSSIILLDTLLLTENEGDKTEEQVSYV
# Procedure: (§1) 1. Binding to Serotonin Receptors
# (§2) The binding of compounds of formula (I) to serotonin receptors was determined in vitro by standard methods. The preparations were investigated in accordance with the assays given hereinafter.
# Method (b): For the binding to the 5-HT2B receptor the 5-HT2B receptors were radiolabeled with [^3H]-5-HT. The affinity of the compounds for human 5-HT2B receptors in a CHO cell line was determined according to the procedure of K. Schmnuck, C. Ullmer, P. Engels and H. Lubbert, FEBS Lett., 1994, 342, 85-90.
# 5-HT2A receptor [1] = biological target: T2, 5-HT2A receptor (Homo sapiens, UniProt P28223); assay: Functional activity, FLIPR calcium assay in CHO cells expressing human 5-HT2A; assay type: cell-based; design: expressed in transfected cells; host or cells: CHO cells; conditions: for Emax: CHO, read-out: h5-HT2A Relative Efficacy (%)
# T2 sequence (P28223 whole entry): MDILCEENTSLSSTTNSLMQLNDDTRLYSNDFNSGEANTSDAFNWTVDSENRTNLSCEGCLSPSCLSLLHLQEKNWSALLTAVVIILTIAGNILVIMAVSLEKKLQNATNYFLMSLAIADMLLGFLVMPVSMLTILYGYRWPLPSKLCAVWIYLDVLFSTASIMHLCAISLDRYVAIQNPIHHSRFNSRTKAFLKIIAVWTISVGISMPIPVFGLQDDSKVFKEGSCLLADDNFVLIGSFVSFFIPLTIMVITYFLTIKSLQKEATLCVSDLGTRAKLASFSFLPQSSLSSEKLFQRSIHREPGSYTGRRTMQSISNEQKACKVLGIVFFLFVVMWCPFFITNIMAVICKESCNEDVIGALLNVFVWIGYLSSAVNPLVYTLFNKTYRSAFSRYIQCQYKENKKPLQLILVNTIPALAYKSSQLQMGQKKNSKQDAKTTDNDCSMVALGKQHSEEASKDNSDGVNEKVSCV
# Procedure: (§3) The functional activity of compounds of formula (I) was assayed using a Fluorimetric Imaging Plate reader (FLIPR). CHO cells expressing the human 5-HT2C or human 5-HT2A receptors were counted and plated into standard 96 well microtitre plates on the day before testing to give a confluent monolayer. The cells were then dye loaded with the calcium sensitive dye, Fluo-3-AM. Unincorporated dye was removed using an automated cell washer to leave a total volume of 100 μL/well of assay buffer (Hanks balanced salt solution containing 20 mM Hepes and 2.5 mM probenecid). The drug (dissolved in 50 μL of the assay buffer) was added at a rate of 70 μL/sec to each well of the FLIPR 96 well plate during fluorescence measurements. The measurements were taken at 1 sec intervals and the maximum fluorescent signal was measured (approx 10-15 secs after drug addition) and compared with the response produced by 10 μM 5-HT (defined as 100%) to which it was expressed as a percentage response (relative efficacy). Dose response curves were constructed using Graphpad Prism (Graph Software Inc.).
# 5-HT2C receptor [2] = biological target: T3, 5-HT2C receptor (Homo sapiens, UniProt P28335); assay: Functional activity, FLIPR calcium assay in CHO cells expressing human 5-HT2C; assay type: cell-based; design: expressed in transfected cells; host or cells: CHO cells; conditions: for Emax: CHO, read-out: h5-HT2C Relative Efficacy (%)
# T3 sequence (P28335 33-458): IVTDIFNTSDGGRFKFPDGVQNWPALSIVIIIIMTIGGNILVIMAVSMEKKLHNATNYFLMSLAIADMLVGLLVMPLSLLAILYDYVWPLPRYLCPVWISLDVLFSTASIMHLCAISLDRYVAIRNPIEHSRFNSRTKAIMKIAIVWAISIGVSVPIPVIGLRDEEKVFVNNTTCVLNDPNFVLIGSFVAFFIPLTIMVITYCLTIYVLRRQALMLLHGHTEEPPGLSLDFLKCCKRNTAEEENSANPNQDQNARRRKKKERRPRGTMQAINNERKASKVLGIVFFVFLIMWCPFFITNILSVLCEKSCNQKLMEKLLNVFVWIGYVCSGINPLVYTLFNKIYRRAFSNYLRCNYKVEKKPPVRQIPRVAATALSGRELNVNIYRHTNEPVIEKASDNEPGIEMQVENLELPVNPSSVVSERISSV
# Procedure: as §3
# 5-HT2C receptor [3] = biological target: T3, 5-HT2C receptor; assay: Binding to 5-HT2C receptor, [3H]-5-HT radioligand, CHO cell line; design: expressed in transfected cells; host or cells: CHO cell line
# Procedure: as §1, §2
# Method (a): For the binding to the 5-HT2C receptor the 5-HT2C receptors were radiolabeled with [^3H]-5-HT. The affinity of the compounds for 5-HT2C receptors in a CHO cell line was determined according to the procedure of D. Hoyer, G. Engel and H. O. Kalkman, European J. Pharmacol., 1985, 118, 13-23.
# 5-HT2A receptor [4] = biological target: T2, 5-HT2A receptor; assay: Binding to 5-HT2A receptor, [125I]-DOI radioligand, CHO cell line; design: expressed in transfected cells; host or cells: CHO cell line
# Procedure: as §1, §2
# Method (c): For the binding to the 5-HT2A receptor the 5-HT2A receptors were radiolabeled with [^125I]-DOI. The affinity of the compounds for 5-HT2A receptors in a CHO cell line was determined according to the procedure of D. J. McKenna and S. J. Peroutka, J. Neurosci., 1989, 9, 3482-90.
# 5-HT2C syndrome = 5-HT2C syndrome in rats (splayed limbs, hunched posture, retro-pulsion); assay type: in vivo; conditions: 30 mg/kg s.c.
# Procedure: The efficacy of 5-HT2C agonists was assessed for ability to induce a specific syndrome.
# The 5-HT2C syndrome is a rapid screening method to assess the in vivo efficacy of 5-HT2C agonists through their ability to induce three specific behaviours in rats. The animals are dosed with either a positive control (mCPP), test compound or vehicle, either sub-cutaneously or p.o. The animals are observed on an open bench, typically 30, 60 and 180 minutes and the degree of syndrome is assessed over a two minute period on a scale of 0-3 depending on the presence and severity of splayed limbs, hunched posture and retro-pulsion, the three specific behaviours which constitute the syndrome. Data is analysed using Kruskal-Wallis Analysis of Variance followed with appropriate post-hoc tests. All statistical analysis are conducted using Excel version 7.0 (Microsoft Corp.) and Statistica version 5.0 (Statsoft, Inc.).
# [5] = cited from earlier work
# [6] = cited from earlier work; remark: listed apart in the source
# 5-HT2C receptor [7] = conditions: cited from earlier work
# [8] = [3H]-5-HT, human receptor, CHO cell line, read-out: Ki (2B)
# [9] = FLIPR, CHO cells, Fluo-3-AM, read-out: h5-HT2A EC50
# [10] = FLIPR, CHO cells, Fluo-3-AM, read-out: h5-HT2C EC50
# [11] = [3H]-5-HT, CHO cell line, read-out: Ki (2C)
# [12] = [125I]-DOI, CHO cell line, read-out: Ki (2A)
smiles,measurement,setting,value
C[C@H](N)CN1CCc2ccc(C(F)(F)F)cc21 [Example 24],Ki,human 5-HT2B receptors,148 nM
same,EC50,5-HT2A receptor [1],3650 nM
same,Emax,5-HT2A receptor [1],33%
same,EC50,5-HT2C receptor [2],131 nM
same,Emax,5-HT2C receptor [2],72%
same,Ki,5-HT2C receptor [3],235 nM
same,Ki,5-HT2A receptor [4],1870 nM
COc1ccc2c(c1)N(C[C@H](C)N)CC2 [Example 13],Ki,human 5-HT2B receptors,175 nM
same,EC50,5-HT2A receptor [1],386 nM
same,Emax,5-HT2A receptor [1],72%
same,EC50,5-HT2C receptor [2],75 nM
same,Emax,5-HT2C receptor [2],74%
same,Ki,5-HT2C receptor [3],122 nM
same,Ki,5-HT2A receptor [4],461 nM
"NCCN1CCc2ccc(Br)cc21 [Example 50, 2-(6-Bromoindolin-1-yl)-1-ethylamine Fumarate]",Ki,human 5-HT2B receptors; [8],159 nM
same,Emax,5-HT2A receptor [1],25%
same,EC50,5-HT2A receptor [1]; [9],4080 nM
same,Emax,5-HT2C receptor [2],78%
same,EC50,5-HT2C receptor [2]; [10],38 nM
same,Ki,5-HT2C receptor [3]; [11],61 nM
same,Ki,5-HT2A receptor [4]; [12],332 nM
C[C@@H](N)CN1CCc2ccc(C(F)(F)F)cc21 [Example 26],Ki,human 5-HT2B receptors,761 nM
same,Ki,5-HT2C receptor [3],1160 nM
same,Ki,5-HT2A receptor [4],1260 nM
C[C@H](N)CN1CCc2cc(F)c(F)cc21 [Example 22],Ki,human 5-HT2B receptors,92 nM
same,EC50,5-HT2A receptor [1],2570 nM
same,Emax,5-HT2A receptor [1],57%
same,EC50,5-HT2C receptor [2],83 nM
same,Emax,5-HT2C receptor [2],87%
same,Ki,5-HT2C receptor [3],260 nM
same,Ki,5-HT2A receptor [4],325 nM
"CC(N)CN1CCc2ccc(Cl)cc21 (racemic) [Example 1, (RS)-1-(6-Chloroindolin-1-yl)-2-propylamine Hydrochloride]",Ki,human 5-HT2B receptors,113 nM
same,time for which significant pharmacological efficacy is maintained (5-HT2C syndrome),5-HT2C syndrome,at least 180 minutes
same,Ki,5-HT2C receptor [3],357 nM
same,Ki,5-HT2A receptor [4],405 nM
"NCCN1CCc2ccc(Cl)cc21 [Example 51, 2-(6-Chloroindolin-1-yl)-1-ethylamine Fumarate]",Ki,human 5-HT2B receptors; [8],140 nM
same,Emax,5-HT2A receptor [1],45%
same,EC50,5-HT2A receptor [1]; [9],1890 nM
same,Emax,5-HT2C receptor [2],88%
same,EC50,5-HT2C receptor [2]; [10],36 nM
same,Ki,5-HT2C receptor [3]; [11],165 nM
same,Ki,5-HT2A receptor [4]; [12],1110 nM
C[C@H](N)CN1CCc2cc(F)c(Br)cc21 [Example 25],Ki,human 5-HT2B receptors,22 nM
same,EC50,5-HT2A receptor [1],1240 nM
same,Emax,5-HT2A receptor [1],57%
same,EC50,5-HT2C receptor [2],21 nM
same,Emax,5-HT2C receptor [2],81%
same,Ki,5-HT2C receptor [3],63 nM
same,Ki,5-HT2A receptor [4],156 nM
"NCCN1CCc2ccc(Cl)cc21 (as salt: fumarate) [Example 51, 2-(6-Chloroindolin-1-yl)-1-ethylamine Fumarate]",melting point,,195 to 196 °C
C[C@H](N)CN1CCc2cc(F)cc(Cl)c21 (as salt: fumarate) [Example 17],melting point,,195 to 196 °C
C[C@H](N)CN1CCc2cc(F)c(Br)cc21 (as salt: fumarate) [Example 25],melting point,,195 to 196 °C
"Clc1cccc(N2CCNCC2)c1 [mCPP, m-chlorophenylpiperazine]",appearance of the behavioural satiety sequence,"[5]; rat, in vivo",accelerate the appearance of the behavioural satiety sequence
same,food intake in rats,[5]; rats,reduce food intake
same,appetite and body weight of obese subjects,"[6]; obese male and female subjects, subchronic treatment for a 14 day period",decreased the appetite and body weight
same,food intake in female volunteers,"[6]; single dose, female volunteers",decreased food intake
same,anorectic action in 5-HT2C receptor knockout mutant mice,5-HT2C receptor [7],absent
CCc1cccc2c1N(C[C@H](C)N)CC2 (as salt: fumarate) [Example 37],melting point,,182 to 183 °C
CCCSc1ccc2c(c1)N(C[C@H](C)N)CC2 (as salt: fumarate) [Example 41],melting point,,147 to 148 °C
C[C@H](N)CN1CCc2ccc(Br)cc21 [Example 12],Ki,human 5-HT2B receptors,42 nM
same,EC50,5-HT2A receptor [1],2410 nM
same,Emax,5-HT2A receptor [1],49%
same,EC50,5-HT2C receptor [2],230 nM
same,Emax,5-HT2C receptor [2],59%
same,Ki,5-HT2C receptor [3],77 nM
same,Ki,5-HT2A receptor [4],1090 nM
CC(N)CN1CCc2ccc(C(F)(F)F)cc21 (centres unmarked) (as salt: fumarate),melting point,,154 to 158 °C
CSc1cc2c(cc1F)CCN2CC(C)N (centres unmarked) (as salt: fumarate) [Example 30],melting point,,96 to 100 °C
CC(N)CN1CCc2cc(OCc3ccccc3)ccc21 (centres unmarked) (as salt: fumarate) (hydrate or solvate),melting point,,143 to 144 °C
CCSc1cc2c(cc1F)CCN2C[C@H](C)N (as salt: fumarate) [Example 31],melting point,,164 to 168 °C
"NCCN1CCc2ccc(Br)cc21 (as salt: fumarate) [Example 50, 2-(6-Bromoindolin-1-yl)-1-ethylamine Fumarate]",melting point,,203 to 206 °C
CC(C)Sc1ccc2c(c1)N(C[C@H](C)N)CC2 (as salt: fumarate) [Example 42],melting point,,164 to 165 °C
CC(N)CN1CCc2ccc(OCc3ccccc3)cc21 (centres unmarked),melting point,,178 to 179 °C
CC(N)CN1CCc2c(OCc3ccccc3)cccc21 (centres unmarked) (as salt: HCl),melting point,,188 to 190 °C
C[C@@H](N)CN1CCc2ccc(C(F)(F)F)cc21 (as salt: fumarate) [Example 26],melting point,,196 to 197 °C
C[C@@H](N)CN1CCc2ccc(Cl)c(Cl)c21 (as salt: fumarate),melting point,,213 to 214 °C
C[C@H](N)CN1CCc2ccc(F)cc21 (as salt: fumarate) [Example 9],melting point,,150 to 153 °C
C[C@@H](N)CN1CCc2cccc(Br)c21 (as salt: fumarate) [Example 19],melting point,,197 °C
C[C@H](N)CN1CCc2c(F)cccc21 (as salt: fumarate) [Example 35],melting point,,167 to 168 °C
CC(C)CCN[C@@H](C)CN1CCc2ccc(Br)cc21 (as salt: HCl),melting point,,161 to 163 °C
C[C@H](N)CN1CCc2cc(Cl)ccc21 (as salt: fumarate) [Example 28],melting point,,207 to 210 °C
CC(C)CN[C@@H](C)CN1CCc2ccc(Br)cc21 (as salt: HCl),melting point,,151 to 153 °C
"C[C@H](N)CN1CCc2ccc(Cl)cc21 [Example 10, (S)-1-(6-Chloroindolin-1-yl)-2-propylamine Fumarate]",Ki,human 5-HT2B receptors,138 nM
same,EC50,5-HT2A receptor [1],2210 nM
same,Emax,5-HT2A receptor [1],49%
same,EC50,5-HT2C receptor [2],125 nM
same,Emax,5-HT2C receptor [2],62%
same,Ki,5-HT2C receptor [3],55 nM
same,Ki,5-HT2A receptor [4],252 nM
